Data on seven compounds can be found in PubChem BioAssay AID2060493 (Molecular Pharmacology Branch, DTP, NCI, 2025).

The subject of the test is 616215-338-R-J1-PDC tumor spheroids, viability. The test can be described thus: Anticancer human tumor 616215-338-R-J1-PDC patient-derived colon adenocarcinoma cell line growth inhibition [GQUAD]. The note with it: spheroids with HUVEC and MSC; for viability, T/C: stronger effect = lower value. The source says:
DNA G-quadruplex Stabilizer Agents in Combinations in Complex Spheroids
A high-throughput screen of multi-cell type tumor spheroids was designed to identify active combinations of DNA G-quadruplex stabilizer agents and targeted small molecules. Complex spheroids include a stromal component modeled by human endothelial cells (HUVEC) and fibroblasts modeled by human mesenchymal stem cells (MSCs). The concentration ranges selected for each drug and investigational agent were based upon clinically achievable concentrations if the clinical Cmax of the agent was known.
Compounds. The drugs and investigational agents: pidnarulex (CX-5461; NSC782164), APTO-253 (NSC789042), BRACO-19 (NSC847499), peposertib (NSC802822), ceralasertib (NSC780249), elimusertib (NSC800525), camonsertib (NSC841442), AZD-1390 (NSC803789), olaparib (NSC753686), talazoparib (NSC767125), ART-558 (NSC835418), sotorasib (NSC818433), MRTX-1133 (NSC836407), SN-38 (NSC673596), topotecan (NSC609699), etoposide (NSC141540), doxorubicin (NSC123127), gemcitabine (NSC613327), 5-fluorouracil (NSC19893), paclitaxel (NSC125973), vemurafenib (NSC761431), panobinostat (NSC761190), R-306465 (JNJ-16241199; NSC773264), adavosertib (NSC754352), TP-3654 (NSC805149), carboplatin (NSC241240), KSQ-4279 (NSC840948), and staurosporine (NSC755774) were obtained from the National Cancer Institute (NCI) Developmental Therapeutics Program Chemical Repository (34). The FDA-approved anticancer drug set is available from the NCI Developmental Therapeutics Program. […] The stock solutions were prepared in dimethyl sulfoxide (DMSO, Sigma-Aldrich, St. Louis, MO, cat. D2650) at 800-fold the tested concentration and stored at -70 degrees C prior to their use. All drugs and investigational agents were tested over a range starting from a high concentration at or near the clinical Cmax and decreasing in half-log increments. If the clinical Cmax for an agent had not been determined, the highest concentration tested was 10 microM.
2.3 Cell Culture. All cells were maintained in an incubator at 37 degrees C and 5% CO2 with 95% humidity. The PDC lines were cultured according to standard operating procedures established by the NCI PDMR. All PDCs were thawed and cultured in Matrigel-coated flasks prepared with a working solution of 1X Ham's F-12 nutrient mix, without supplementation (Invitrogen, cat. 11765054), 100 U/mL penicillin-streptomycin (Invitrogen, cat. 15140122), and 2.5% Matrigel (Corning Inc., cat. 354248) for the first three passages. The 857933-349-R-J2-PDC line was cultured in 6C/Colon 1B media, which includes advanced DMEM/F-12 (Thermo Fisher Scientific, cat. 12634028), 10 mM HEPES (Thermo Fisher Scientific, cat. 15630080), 1X GlutaMAX supplement (Thermo Fisher Scientific, cat. 35050061), 0.1 mg/mL primocin (InvivoGen, cat. ant-pm-2), 10% defined fetal bovine serum, heat inactivated (HyClone Laboratories Inc., cat. SH30070.03HI), 50% L-WRN conditioned media (ATCC, cat. CRL-3276), 1.25 mM N-Acetyl-L-cysteine (Sigma-Aldrich, cat. A9165), 10 mM nicotinamide (Sigma-Aldrich, cat. N0636), 1X B-27 supplement (Thermo Fisher Scientific, cat. 17504044), 1X N-2 supplement (Thermo Fisher Scientific, cat. 17502048), 10 microM Y-27632 dihydrochloride (Tocris Bioscience, cat. 1254), and 50 ng/mL human EGF recombinant protein (Thermo Fisher Scientific, cat. PHG0311). The 485176-168-R4-J1-PDC line was cultured in Panc media, which includes all 6C/Colon 1B media components plus 100 ng/mL human FGF-10 (Thermo Fisher Scientific, cat. 100-26), 500 nM SB-431542 (Selleckchem, cat. S1067), and gastrin (Tocris, cat. 3006).
[…]

“And” between values parts separate entries of the source, which are not always exact repeats. Equal entries are not always repeated.
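Further: spheroids exposed to agents for 7 days before readout.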
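Wherever viability, T/C is given: percent viability relative to DMSO vehicle control wells taken as 100%.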

As for `C=CC(=O)N1CCN(c2nc(=O)n(-c3c(C)ccnc3C(C)C)c3nc(-c4c(O)cccc4F)c(F)cc23)C(C)C1` (centres undefined) + CN(C)c1ccc(Nc2c3ccc(NC(=O)CCN4CCCC4)cc3nc3cc(NC(=O)CCN4CCCC4)ccc23)cc1, the IC50 by setting is: (curve of first compound, second compound 0.0316 µM) greater than 10000 nM; (curve of first compound, second compound 0.1 µM) greater than 10000 nM; (curve of first compound, second compound 0.316 µM) greater than 10000 nM; (curve of first compound, second compound 1 µM) greater than 10000 nM; (curve of first compound, second compound 3.16 µM) greater than 10000 nM; (curve of first compound, second compound 10 µM) greater than 10000 nM. For the same compound, the viability, T/C runs as follows: (second compound 0.0316 µM, first compound 0.0316 µM) 96.3%; (second compound 0.0316 µM, first compound 0.1 µM) 104%; (second compound 0.0316 µM, first compound 0.316 µM) 103%; (second compound 0.0316 µM, first compound 1 µM) 102%; (second compound 0.0316 µM, first compound 3.16 µM) 94.2%; (second compound 0.0316 µM, first compound 10 µM) 72%. The viability, T/C reads like this: (second compound 0.1 µM, first compound 0.0316 µM) 110%; (second compound 0.1 µM, first compound 0.1 µM) 89.6%; (second compound 0.1 µM, first compound 0.316 µM) 100%; (second compound 0.1 µM, first compound 1 µM) 98%; (second compound 0.1 µM, first compound 3.16 µM) 95.4%; (second compound 0.1 µM, first compound 10 µM) 64.8%. Further, the viability, T/C runs as follows: (second compound 0.316 µM, first compound 0.0316 µM) 93%; (second compound 0.316 µM, first compound 0.1 µM) 107%; (second compound 0.316 µM, first compound 0.316 µM) 94.9%; (second compound 0.316 µM, first compound 1 µM) 103%; (second compound 0.316 µM, first compound 3.16 µM) 89%; (second compound 0.316 µM, first compound 10 µM) 70.6%. In addition, the viability, T/C (second compound 1 µM, first compound 0.0316 µM) was 98.7%; the viability, T/C (second compound 1 µM, first compound 0.1 µM) was 100%; the viability, T/C (second compound 1 µM, first compound 0.316 µM) is 102%; the viability, T/C (second compound 1 µM, first compound 1 µM) was 91.9%; the viability, T/C (second compound 1 µM, first compound 3.16 µM) was 91.6%; the viability, T/C (second compound 1 µM, first compound 10 µM) was 69.1%. Further, the viability, T/C is, setting by setting: (second compound 3.16 µM, first compound 0.0316 µM) 102%; (second compound 3.16 µM, first compound 0.1 µM) 86.7%; (second compound 3.16 µM, first compound 0.316 µM) 94.9%; (second compound 3.16 µM, first compound 1 µM) 95%; (second compound 3.16 µM, first compound 3.16 µM) 80.2%; (second compound 3.16 µM, first compound 10 µM) 63.9%. In addition, the viability, T/C is, setting by setting: (second compound 10 µM, first compound 0.0316 µM) 98.1%; (second compound 10 µM, first compound 0.1 µM) 85.7%; (second compound 10 µM, first compound 0.316 µM) 86.3%; (second compound 10 µM, first compound 1 µM) 86.8%; (second compound 10 µM, first compound 3.16 µM) 70.3%; (second compound 10 µM, first compound 10 µM) 55.2%.
With `CC(=O)O[C@H]1C(=O)[C@@]2(C)[C@H]([C@H](OC(=O)c3ccccc3)[C@]3(O)C[C@H](OC(=O)[C@H](O)[C@@H](NC(=O)c4ccccc4)c4ccccc4)C(C)=C1C3(C)C)[C@]1(OC(C)=O)CO[C@@H]1C[C@@H]2O`, the viability, T/C reads like this: (compound 0.0316 µM) 18.6% and 23.3% and 49.7%; (compound 0.1 µM) 15.1% and 16.7% and 22.2%; (compound 0.316 µM) 14.9% and 20% and 21.1%; (compound 1 µM) 18% and 14.6% and 17.4%; (compound 3.16 µM) 13.8% and 14.9% and 15.3%; (compound 10 µM) 13.3% and 15.2% and 14.8%. In addition, where the note is “curve of compound”, the IC50 was less than 31.6 nM.
As to `COc1ccc([C@@H](O)c2cc(-c3ncnc4cc(N5CCOCC5)ccc34)c(F)cc2Cl)nn1`, the viability, T/C runs as follows: (compound 0.0316 µM) 115% and 98% and 99.7%; (compound 0.1 µM) 101% and 102% and 89.1%; (compound 0.316 µM) 98% and 106% and 97.2%; (compound 1 µM) 96.9% and 97.6% and 92.6%; (compound 3.16 µM) 97.4% and 100% and 94.8%; (compound 10 µM) 56.7% and 49% and 51.9%. The IC50 (curve of compound) was > 10000 nM and 9780 nM.
Turning to `CC[C@@]1(O)C(=O)OCc2c1cc1n(c2=O)Cc2cc3c(CN(C)C)c(O)ccc3nc2-1`, the viability, T/C (compound 0.000999 µM) is 106% and 109% and 103%; the viability, T/C (compound 0.00316 µM) is 93.6% and 97% and 92.9%; the viability, T/C (compound 0.00999 µM) was 92.7% and 99.7% and 101%; the viability, T/C (compound 0.0316 µM) is 92.8% and 96.2% and 101%; the viability, T/C (compound 0.0999 µM) is 97.8% and 89% and 91.2%; the viability, T/C (compound 0.316 µM) was 50.1% and 44.3% and 47.5%. Besides, the IC50 (curve of compound) was > 316 nM and 273 nM and 297 nM.
As to `Cc1cccc(N(C)C(=O)C2C(O)CCN2c2nc(C)cc(C(F)(F)F)c2C#N)c1` (centres undefined), the viability, T/C is, setting by setting: (compound 0.0316 µM) 91.4% and 99.2% and 101%; (compound 0.1 µM) 106% and 94.5% and 102%; (compound 0.316 µM) 94.1% and 103% and 102%; (compound 1 µM) 94% and 96.9% and 105%; (compound 3.16 µM) 102% and 98.7% and 113%; (compound 10 µM) 102% and 92.6% and 103%. In addition, where the note is “curve of compound”, the IC50 was greater than 10000 nM.
Regarding `Cc1[nH]c2ccccc2c1CCNCc1ccc(/C=C/C(=O)NO)cc1`, the viability, T/C reads like this: (compound 0.000999 µM) 103% and 102% and 97.5%; (compound 0.00316 µM) 95.9% and 93.8% and 101%; (compound 0.00999 µM) 92.1% and 107% and 103%; (compound 0.0316 µM) 108% and 94.3% and 87.4%; (compound 0.0999 µM) 69.3% and 72.3% and 79.7%; (compound 0.316 µM) 17.6% and 10.8% and 27.7%. Also, under “curve of compound”, the half-inhibitory concentration (IC50) was 154 nM and 151 nM and 189 nM.
On to `O=C(NO)c1cnc(N2CCN(S(=O)(=O)c3ccc4ccccc4c3)CC2)nc1`, for which the viability, T/C by setting is: (compound 0.0316 µM) 101% and 114% and 112%; (compound 0.1 µM) 96.7% and 102% and 94.6%; (compound 0.316 µM) 53.2% (2×) and 60.8%; (compound 1 µM) 1.44% and 0.67% and 2.74%; (compound 3.16 µM) 0.23% and 0.21% and 0.06%; (compound 10 µM) 0.22% and 0.09%. Also, where the note is “curve of compound”, the IC50 is 339 nM and 331 nM and 380 nM.

As a reminder, the IC50 is the concentration that inhibits the measured activity by half. The viability, T/C is the ratio of treated to control.
